# According to the supplement of paper PMC10307832:
# Key:
# Assay in all cases: relative viability (nuclei count vs DMSO), 5 days (fraction); higher = more cells survive
# [1] = compound: C1COCCN1C2=NC(=NC3=C2OC4=C3C=CC=N4)C5=CC(=CC=C5)NC(=O)C6=CN=C(C=C6)N + COc1cccc2cc(-c3nc([C@H]4CC[C@H](C(=O)O)CC4)n4ncnc(N)c34)[nH]c12 [OSI-027] (partner 0.5 µM)
# In short: (§1)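 Values are medians from duplicate plates. Each reflects relative viability, defined as the nuclei count of treated wells over that of vehicle wells. Lung cancer cell lines in 1536-well plates were pin-tool dosed one day after seeding with one drug alone or with a fixed anchor-drug dose plus five library-drug doses (not always all listed) in √10 steps, then fixed, stained and imaged at 4× after 5 days.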
# [2] = compound: CN1CCC(CNc2ccc3ncc(-c4cccc(OC(F)(F)F)c4)n3n2)CC1 [SGI-1776] + N=C(N)NC(=N)NCCc1ccccc1 [Phenformin] (partner 250 µM)
# In short: as §1
# [3] = compound: CN1CCC(CNc2ccc3ncc(-c4cccc(OC(F)(F)F)c4)n3n2)CC1 [SGI-1776] + CC(=O)Nc1cccc(-n2c(=O)n(C3CC3)c(=O)c3c(Nc4ccc(I)cc4F)n(C)c(=O)c(C)c32)c1 [Trametinib] (partner 0.02 µM)
# In short: as §1
# [4] = compound: C1COCCN1C2=NC(=NC3=C2OC4=C3C=CC=N4)C5=CC(=CC=C5)NC(=O)C6=CN=C(C=C6)N + Cc1nc(Nc2ncc(C(=O)Nc3c(C)cccc3Cl)s2)cc(N2CCN(CCO)CC2)n1 [Dasatinib] (partner 0.075 µM)
# In short: as §1
Cell Line,relative viability ([1]; first compound 0.02 µM),relative viability ([1]; first compound 0.06325 µM),relative viability ([1]; first compound 0.2 µM),relative viability ([1]; first compound 0.6325 µM),relative viability ([1]; first compound 2 µM),relative viability ([2]; first compound 0.08 µM),relative viability ([2]; first compound 0.8 µM),relative viability ([2]; first compound 2.53 µM),relative viability ([2]; first compound 8 µM),relative viability ([3]; first compound 0.08 µM),relative viability ([3]; first compound 0.8 µM),relative viability ([3]; first compound 2.53 µM),relative viability ([3]; first compound 8 µM),relative viability ([4]; first compound 0.02 µM),relative viability ([4]; first compound 0.06325 µM),relative viability ([4]; first compound 0.2 µM),relative viability ([4]; first compound 0.6325 µM),relative viability ([4]; first compound 2 µM)
NCI-H596,0.674,0.735,0.65,0.526,0.373,0.724,0.688,0.701,0.704,0.797,0.733,0.782,0.678,0.607,0.621,0.545,0.739,0.5
NCI-H1651,0.643,0.812,0.703,0.617,0.472,0.386,0.396,0.311,0.251,0.806,0.852,0.843,0.746,0.482,0.461,0.39,0.4,0.22
NCI-H1437,0.816,0.844,0.791,0.6,0.535,0.322,0.259,0.296,0.297,0.565,0.524,0.361,0.301,0.33,0.431,0.272,0.385,0.264
NCI-H1975,0.728,0.708,0.5,0.388,0.353,0.426,0.41,0.403,0.379,0.389,0.33,0.325,0.313,0.362,0.388,0.298,0.296,0.187
BEN,0.283,0.297,0.295,0.274,0.389,0.282,0.269,0.303,0.306,1.03,1.24,0.991,0.791,0.309,0.297,0.334,0.371,0.325
NCI-H322M,0.526,0.523,0.544,0.49,0.416,0.875,0.846,0.786,0.552,0.524,0.506,0.485,0.487,0.251,0.251,0.241,0.274,0.234
SK-MES-1,0.572,0.664,0.589,0.426,0.337,0.643,0.593,0.53,0.493,0.546,0.521,0.494,0.324,0.342,0.406,0.259,0.239,0.244
HOP-62,0.947,0.938,0.713,0.748,0.481,0.728,0.616,0.704,0.623,0.384,0.359,0.437,0.367,0.765,0.743,0.547,0.574,0.323
HCC-366,0.82,1.04,0.68,0.537,0.352,0.61,0.527,0.564,0.431,0.344,0.368,0.289,0.19,0.647,0.745,0.691,0.576,0.26
NCI-H2405,0.578,0.668,0.618,0.599,0.585,0.384,0.304,0.215,0.227,0.679,0.595,0.568,0.398,0.209,0.229,0.223,0.215,0.213
NCI-H1650,0.657,0.617,0.434,0.548,0.397,0.441,0.368,0.248,0.129,0.543,0.521,0.504,0.371,0.336,0.29,0.287,0.278,0.248
NCI-H1355,0.397,0.401,0.336,0.359,0.363,0.451,0.423,0.401,0.3,0.444,0.408,0.408,0.41,0.755,0.79,0.71,0.659,0.5
NCI-H1793,0.253,0.301,0.251,0.177,0.233,0.389,0.219,0.262,0.249,0.418,0.518,0.589,0.444,0.378,0.453,0.417,0.334,0.383
NCI-H1734,0.719,0.638,0.576,0.542,0.417,0.41,0.366,0.394,0.284,0.686,0.742,0.786,0.603,0.502,0.544,0.436,0.397,0.262
LXF-289,0.814,0.884,0.768,0.748,0.351,0.54,0.534,0.496,0.486,0.68,0.64,0.668,0.606,0.228,0.249,0.219,0.17,0.175
PC-3 [JPC-3],0.849,0.839,0.697,0.704,0.54,0.509,0.476,0.511,0.451,0.757,0.73,0.656,0.462,1.18,1.08,1.02,0.818,0.629
